The target in this test is Complement factor D (Homo sapiens, UniProt P00746). The test is described as follows: Not found.
Text: Not found

Complement factor D, sequence (P00746 whole entry): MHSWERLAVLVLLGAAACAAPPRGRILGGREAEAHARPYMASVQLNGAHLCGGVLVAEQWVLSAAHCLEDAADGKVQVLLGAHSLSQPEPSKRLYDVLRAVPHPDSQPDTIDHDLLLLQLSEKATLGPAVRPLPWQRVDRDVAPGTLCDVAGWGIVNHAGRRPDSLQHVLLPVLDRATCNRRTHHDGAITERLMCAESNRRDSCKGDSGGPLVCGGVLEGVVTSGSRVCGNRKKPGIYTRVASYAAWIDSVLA

One may read the IC50 as the point on the concentration scale where inhibition reaches its midpoint. High values mean weaker potency, low ones greater potency. `CC(=O)c1nn(CC(=O)N2C[C@H](F)C[C@H]2C(=O)Nc2cccc(-c3ccc4[nH]cnc4c3Cl)c2F)c2cnccc12` [US10807952, Cmp No. 1] returned an IC50 of under 1 µM. In the case of `NC(=O)c1nn(CC(=O)N2C[C@H](F)C[C@H]2C(=O)Nc2cccc(-c3ccc4[nH]cnc4c3Cl)c2F)c2ccc(Br)cc12` [US10807952, Cmp No. 4], the IC50 was under 1 µM. The result for `NC(=O)c1nn(CC(=O)N2C[C@H](F)C[C@H]2C(=O)Nc2cccc(-c3nc4cccc(Cl)c4[nH]3)c2F)c2ccccc12` [US10807952, Cmp No. 27] reads under 1 µM; that for `NC(=O)c1nn(CC(=O)N2C[C@H](F)C[C@H]2C(=O)Nc2cccc(Br)n2)c2cc(C(F)(F)F)sc12` [US10807952, Cmp No. 34], under 1 µM. Regarding `NC(=O)c1cccc(CC(=O)N2C[C@H](F)C[C@H]2C(=O)Nc2cccc(-c3ccccc3Cl)c2F)n1` [US10807952, Cmp No. 38], the 50% inhibitory concentration (IC50) was under 1 µM.

For the origin of these results see BindingDB's records for patent US10807952 (Achillion Pharmaceuticals, Inc., 2020).
